According to US12215387B2, “Biomarker predictive of responsiveness to alpha 7 nicotinic acetylcholine receptor activator treatment” (Novartis AG, priority 2012, dated 2025):

System: patients with schizophrenia
Assay: Continuous Paired Associates Learning (CPAL) test of the CogState schizophrenia battery, by CYP1A2 rs2069514 genotype
Assay type: in vivo, human
Description: To measure the effect of alpha 7 nicotinic acetylcholine receptor activator treatment on the cognitive skills of schizophrenic patients, an adequate cognitive test battery (CogState™) with short duration (as described in detail below) was applied allowing multiple time points measurements during the treatment period (Pietrzak, et al 2009; Maruff, et al 2009).
The CPAL task is a validated test that assesses visual episodic memory (associate learning). This test has been used previously in schizophrenia. Before beginning this task, the test supervisor reads the full instructions to the patient from the test supervisor script. On the CPAL test, participants must learn a series of associations between a set of difficult to verbalize patterns and locations. In the presentation phase of the task, the pattern appears at the location and the subject is required to acknowledge that they have seen the pattern by touching the location at which it appears. At this stage of the task the patient will also see that there are two locations at which no target appears (distractor locations). Patterns are presented, in random order. However, once presented the pattern remains at the same location throughout the task. In the learning phase of the task, patients must place each of the eight patterns in their correct locations. They must do this in six rounds. For the first round, one of the patterns is presented in the centre location and the subject is required to remember the location at which it had been shown. They indicate the location by touching it. If they touch the incorrect location, a visual and audible signal occurs (a red cross appears over the location and a buzzer sound is presented). The patient is then required to choose a second location. This process continues until the patient has correctly placed all […] of the targets in their correct locations. Once all eight patterns have been placed correctly, the second round begins. In the second round the patterns remain in the same locations, but their order of presentation in the centre of the screen is different to that of the first round (randomized). The process of placing each target in the correct location proceeds as it did in the first round. When the second round is complete, the same process is repeated as the rounds progress the number of errors made in placing the patterns in their correct locations reduces. Administration time is approximately 5 minutes in healthy volunteers. Patients with Schizophrenia would be expected to complete the task within about 12 minutes.
The assessment of activity was obtained from a statistical analysis of the post dose Area Under the Effect Curve (AUEC) 4-10 on CPAL as follows: variables were separately analyzed by means of a linear mixed effect model adjusted for the period-specific baseline value for the scale, the treatment group, the period, and the sequence as fixed effects, and for the patient as a random effect. The period-specific baseline value for the scale was obtained from the average of the period-specific Day −1 values and from the pre-dose value. The mean treatment difference (and its 95% CI) between each B-5 dose group and placebo was obtained from the model. The effect size was obtained by dividing the mean treatment difference (and its 95% CI) by the square root of twice the estimated variance of the residual error. Activity, as defined in the paragraph above, was assessed from the effect size of CPAL.
In an attempt to identify a subset of patients who respond to B-5 treatment, a study in a population of 29 individuals using the CPAL assessment was conducted. The purpose was to investigate the relationship between the genetic variants rs2069514 (SEQ IDs NO. 1 and 2) in the CYP1A2 gene and B-5 efficacy in the study. In the study, B-5 mono-fumarate was used in the form of hard gelatin capsules as described in Example E. […]

Structure (SMILES): Cc1ccc(-c2ccc(O[C@H]3CN4CCC3CC4)cn2)cc1 [B-5, (R)-3-(6-p-tolyl-pyridin-3-yloxy)-1-aza-bicyclo[2.2.2]octane]
- CPAL - AUC4-10 Estimated mean AUC 4-10 (CYP1A2 genotype GG (n = 15), B-5 2 mg): 414.75 Total # errors × Hours
- CPAL - AUC4-10 Placebo - B-5 Effect size (CYP1A2 genotype GG (n = 15), B-5 2 mg, P-value 0.59): 0.15
- CPAL - AUC4-10 Estimated mean AUC 4-10 (CYP1A2 genotype GG (n = 15), B-5 15 mg): 481.4 Total # errors × Hours
- CPAL - AUC4-10 Placebo - B-5 Effect size (CYP1A2 genotype GG (n = 15), B-5 15 mg, P-value 0.6706): −0.12
- CPAL - AUC4-10 Estimated mean AUC 4-10 (CYP1A2 genotype GG (n = 15), B-5 100 mg): 457.45 Total # errors × Hours
- CPAL - AUC4-10 Placebo - B-5 Effect size (CYP1A2 genotype GG (n = 15), B-5 100 mg, P-value 0.9344): −0.02
- CPAL - AUC4-10 Estimated mean AUC 4-10 (CYP1A2 genotypes AA + AG (n = 14), B-5 2 mg): 411.15 Total # errors × Hours
- CPAL - AUC4-10 Placebo - B-5 Effect size (CYP1A2 genotypes AA + AG (n = 14), B-5 2 mg, P-value 0.018): 0.68
- CPAL - AUC4-10 Estimated mean AUC 4-10 (CYP1A2 genotypes AA + AG (n = 14), B-5 15 mg): 372.82 Total # errors × Hours
- CPAL - AUC4-10 Placebo - B-5 Effect size (CYP1A2 genotypes AA + AG (n = 14), B-5 15 mg, P-value 0.0023): 0.91
- CPAL - AUC4-10 Estimated mean AUC 4-10 (CYP1A2 genotypes AA + AG (n = 14), B-5 100 mg): 384.9 Total # errors × Hours
- CPAL - AUC4-10 Placebo - B-5 Effect size (CYP1A2 genotypes AA + AG (n = 14), B-5 100 mg, P-value 0.0043): 0.83
- improvement on cognitive function (patients homozygous rs2069514-G/G): did not show any significant improvement
- response on visual learning and memory (CPAL) compared to placebo (patients rs2069514 A/A or A/G, 2 mg p=0.018, 15 mg p=0.0023, 100 mg p=0.0043): significant response
